The text below walks through data of patent publication US12077503B2, “Substituted cyclic amides and their use as herbicides” (FMC CORPORATION, priority 2015, dated 2024).

Data set [1] has as its system green foxtail (Setaria viridis). The data set is described as follows: Test A preemergence. The format is in vivo. The note with it: for Foxtail, Green plant response rating: 0 to 100 scale where 0 is no effect and 100 is complete control. The essentials:
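Seeded soil received test chemicals as a preemergence directed spray, and seedlings at one to two leaves, 2–10 cm tall, received them postemergence, in a non-phytotoxic, surfactant-containing solvent mixture. Pots were held in a greenhouse for approximately 10 d, then rated for injury from 0, no effect, to 100, complete control.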

Where [2] appears, read: 125 g ai/ha, preemergence, approx. 10 d.

As usually defined, the melting point is the temperature of the solid-liquid transition.

With `CN1C[C@H](c2csc3c2CCC(F)(F)C3)[C@@H](C(=O)Nc2ccccc2S(C)(=O)=O)C1=O` (racemic) [Compound 1367], in data set [1] (31 g ai/ha, Preemergence), the “Foxtail, Green plant response rating” value is reported as 0. In addition, the “Plant response rating, Foxtail, Green” value in data set [1] (Preemergence, 125 g ai/ha, 0 to 100 scale (0 no effect, 100 complete control)) was 60.

As for `COc1cccc([C@H]2CN(C)C(=O)[C@@H]2C(=O)Nc2ccc(F)c(F)c2F)c1` [Compound 1063], the “Foxtail, Green plant response rating” value in data set [1] (31 g ai/ha, Preemergence) is given as 100; in data set [1] (setting [2]), 100.

For `CN1C[C@H](c2ccc(C(F)(F)F)cc2)[C@@H](C(=O)Nc2ccccc2Br)C1=O` [Compound 943], the melting point was in the range of 104 to 107 °C.

Regarding `COc1cccc([C@H]2CN(C)C(=O)[C@@H]2C(=O)Nc2cccc(F)c2F)c1` [Compound 1062], the “Foxtail, Green plant response rating” value in data set [1] (31 g ai/ha, Preemergence) stood at 100; in data set [1] (setting [2]), 100.

The compound `CN1C[C@H](c2ccc(C(F)(F)F)cn2)[C@@H](C(=O)Nc2cccc(F)c2F)C1=O` [Compound 1052] displayed a melting point of 120 to 124 °C.
